Measurements published in paper PMC10167348, “Structural mechanisms of TRPM7 activation and inhibition” (Nature Communications, 2023).

Assays:
wild-type TRPM7 = target: T1, wild-type TRPM7 (Mus musculus, UniProt Q923J1); assay: Whole-cell patch-clamp recordings in HEK 293T cells; assay type: cell-based; settings: 10 µM inhibitor, 450-s exposure, amplitude at +80 mV
T1 construct: expressed in transfected cells; host or cells: HEK 293T
Description: Patch-clamp experiments were performed as reported previously, with a few modifications[69],[70]. HEK 293T cells grown in 35-mm dishes to ~60% confluence were transiently transfected with Trpm7 cDNAs in the pIRES2-EGFP vector (2 µg/dish). Patch-clamp experiments were conducted 18–22 h after transfection with cells displaying EGFP fluorescence. Whole-cell currents were recorded using an EPC10 patch-clamp amplifier and PatchMaster software (Version V2x69, Harvard Bioscience). Voltages were corrected for a liquid junction potential of 10 mV. Currents were elicited by voltage ramps from –100 mV to +100 mV over 50 ms acquired at 0.5 Hz. The inward and outward current amplitudes were measured at –80 mV and +80 mV and were normalized to the cell size as pA/pF. The capacitance was measured using the automated capacitance cancellation function of EPC10. The standard extracellular solution contained 140 mM NaCl, 2.8 mM KCl, 1 mM CaCl2, 2 mM MgCl2, 10 mM HEPES-NaOH, and 11 mM glucose (all from Sigma-Aldrich). Solutions were adjusted to pH 7.2 using an FE20 pH meter (Mettler Toledo) and to 290 mOsm using a Vapro 5520 osmometer (Wescor Inc). […] For the experiment with naltriben, the intracellular solution contained 120 mM Cs-glutamate, 8 mM NaCl, 10 mM Cs-EGTA, 1.5 mM MgCl2, and 10 mM HEPES-CsOH. The intracellular solution was also adjusted to pH 7.2 and 290 mOsm. Data are presented as the mean ± SEM Unless indicated otherwise, data were compared by unpaired t-test (GraphPad Prism 8.4.0). For multiple comparisons, ordinary one-way ANOVA (GraphPad Prism 8.4.0) was used. Significance was accepted at P ≤ 0.05.

TRPM7-M991A = target: T2, TRPM7-M991A (Mus musculus, UniProt Q923J1, M991A); assay: Aequorin-based Ca2+ influx assay, inhibition of TRPM7-mediated Ca2+ influx; assay type: cell-based; settings: for sensitivity of the mutant to the inhibitor: TRPM7-M991A
T2 construct: expressed in transfected cells; host or cells: HEK 293T
T2 sequence (Q923J1 whole entry M991A): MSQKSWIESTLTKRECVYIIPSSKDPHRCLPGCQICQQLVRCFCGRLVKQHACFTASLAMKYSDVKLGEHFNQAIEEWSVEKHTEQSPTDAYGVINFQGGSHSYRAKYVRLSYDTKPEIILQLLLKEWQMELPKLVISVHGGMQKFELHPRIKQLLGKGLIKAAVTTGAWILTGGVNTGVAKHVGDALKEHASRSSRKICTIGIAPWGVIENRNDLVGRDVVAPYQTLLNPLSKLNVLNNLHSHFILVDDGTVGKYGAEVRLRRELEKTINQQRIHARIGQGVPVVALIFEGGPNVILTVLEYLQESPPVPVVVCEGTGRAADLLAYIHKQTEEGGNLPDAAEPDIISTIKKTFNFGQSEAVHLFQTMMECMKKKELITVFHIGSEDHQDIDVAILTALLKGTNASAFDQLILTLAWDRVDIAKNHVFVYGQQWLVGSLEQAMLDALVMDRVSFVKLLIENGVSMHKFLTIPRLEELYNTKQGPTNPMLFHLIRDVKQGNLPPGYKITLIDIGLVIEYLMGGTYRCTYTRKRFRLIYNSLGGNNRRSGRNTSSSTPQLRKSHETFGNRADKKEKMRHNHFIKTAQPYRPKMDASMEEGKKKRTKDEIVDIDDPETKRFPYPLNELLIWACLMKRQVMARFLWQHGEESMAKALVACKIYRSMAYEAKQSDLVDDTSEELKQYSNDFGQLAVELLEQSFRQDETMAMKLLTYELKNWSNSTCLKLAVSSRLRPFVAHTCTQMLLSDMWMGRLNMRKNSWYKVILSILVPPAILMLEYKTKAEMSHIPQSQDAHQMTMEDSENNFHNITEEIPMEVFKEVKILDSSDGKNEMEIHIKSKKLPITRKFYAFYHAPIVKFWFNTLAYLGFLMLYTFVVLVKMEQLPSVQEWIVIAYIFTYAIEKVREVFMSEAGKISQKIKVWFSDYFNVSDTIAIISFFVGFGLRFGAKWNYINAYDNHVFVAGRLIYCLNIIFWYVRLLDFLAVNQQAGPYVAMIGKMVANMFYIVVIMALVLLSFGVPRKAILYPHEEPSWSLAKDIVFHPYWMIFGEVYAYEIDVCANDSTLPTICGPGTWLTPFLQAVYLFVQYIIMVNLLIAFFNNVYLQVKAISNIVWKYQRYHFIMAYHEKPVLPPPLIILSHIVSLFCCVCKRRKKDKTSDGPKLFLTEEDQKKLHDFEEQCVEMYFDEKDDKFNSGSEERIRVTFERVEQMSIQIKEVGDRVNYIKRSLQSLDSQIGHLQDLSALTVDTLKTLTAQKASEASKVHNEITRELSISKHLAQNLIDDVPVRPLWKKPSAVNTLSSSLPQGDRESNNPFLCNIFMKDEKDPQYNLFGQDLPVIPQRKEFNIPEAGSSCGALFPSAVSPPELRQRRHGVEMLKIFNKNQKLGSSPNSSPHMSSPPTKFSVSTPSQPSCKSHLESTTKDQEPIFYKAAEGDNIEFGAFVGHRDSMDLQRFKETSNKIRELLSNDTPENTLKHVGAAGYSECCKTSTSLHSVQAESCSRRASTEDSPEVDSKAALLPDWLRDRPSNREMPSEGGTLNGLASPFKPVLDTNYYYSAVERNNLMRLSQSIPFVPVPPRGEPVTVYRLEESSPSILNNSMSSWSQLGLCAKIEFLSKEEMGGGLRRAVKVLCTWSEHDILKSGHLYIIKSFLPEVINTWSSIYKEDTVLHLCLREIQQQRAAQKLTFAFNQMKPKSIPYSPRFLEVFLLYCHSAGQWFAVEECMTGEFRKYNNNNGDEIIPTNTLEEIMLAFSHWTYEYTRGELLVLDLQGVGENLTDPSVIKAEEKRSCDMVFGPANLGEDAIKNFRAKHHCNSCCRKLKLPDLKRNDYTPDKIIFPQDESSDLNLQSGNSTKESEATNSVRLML
Description: (§1) Measurements of [Ca^2+]i were performed as reported previously with several modifications[2],[52],[54]. HEK 293T cells (mycoplasma test negative, ATCC #CRL3216) were maintained at 37 °C and 5% CO2 in DMEM supplemented with 10% fetal calf serum, 100 µg/ml streptomycin and 100 U/ml penicillin (all from Thermo Fisher Scientific). Cells cultured in six-well plates (~60% confluence) were transfected with 2 µg/dish Trpm7 plasmid DNA and 0.1 µg/dish pG5A plasmid DNA encoding eGFP fused to Aequorea victoria aequorin, using Lipofectamine 2000 (Thermo Fisher Scientific). Twenty-four hours after transfection, the cells were washed with Mg^2+-free HEPES-buffered saline (Mg^2+-free HBS) containing 140 mM NaCl, 6 mM KCl, 0.5 mM CaCl2, 10 mM HEPES (pH 7.4) and 5 mM glucose, and mechanically resuspended in the Mg^2+-free HBS. For reconstitution of aequorin, cell suspensions were incubated with 5 µM coelenterazine (Biaffin GmbH) in the Mg^2+-free HBS for 30 min at room temperature. Cells were washed twice by centrifugation at 600 rpm for 5 min (Heraeus Pico 17 microcentrifuge, Thermo Fisher Scientific), resuspended in the Mg^2+-free HBS and aliquoted into 96-well plates (1 × 10^5 cells per well). Luminescence was detected at room temperature using a FLUOstar OPTIMA microplate reader (BMG LABTECH GmbH). To monitor the NS8593- and VER155008-induced inhibition of TRPM7-mediated Ca^2+ influx, the extracellular concentration of Ca^2+ was increased to 5 mM by injecting the CaCl2-containing Mg^2+-free HBS in the absence or presence of the inhibitors. […] To study activation by naltriben, TRPM7-transfected cells were exposed to Mg^2+-free HBS containing different concentrations of the agonist. The experiments were terminated by lysing cells with 0.1% (v/v) Triton X-100 in the Mg^2+-free HBS to record the total bioluminescence. The bioluminescence rates (counts/s) were analyzed at 1-s intervals and calibrated as [Ca^2+]i values using the following equation:1 p[Ca^2+]i=0.332588(−log(k))+5.5593 where k represents the rate of aequorin consumption, i.e., counts/s divided by the total number of counts.
(§2) To determine the IC50 values for NS8593 and VER155008 (EC50 for naltriben), the data were fitted with the following logistic equation:2 Ec=Emin+Emax+Emin/1+c^h/IC50^h where E(c) is the functional effect at the concentration c of the compound, Emin is the minimal effect, Emax is the maximal effect, IC50 (EC50) is the concentration of the compound that produces the half-maximal effect, and h is the Hill coefficient. Fitting of dose-response curves was performed using GraphPad Prism 8.4.0. Data are presented as the mean ± SEM.

TRPM7 WT = target: T3, TRPM7 WT (Mus musculus, UniProt Q923J1); assay: as above; assay type: cell-based; settings: antagonist, mean ± SEM
T3 construct: expressed in transfected cells; host or cells: HEK 293T
T3 sequence (Q923J1 whole entry): as the sequence (Q923J1 whole entry M991A) above, with A991M counted along it
Description: as §1, §2

TRPM7-W1111A = target: T4, TRPM7-W1111A (Mus musculus, UniProt Q923J1, W1111A); assay: as above; assay type: cell-based; settings: antagonist, mean ± SEM
T4 construct: expressed in transfected cells; host or cells: HEK 293T
T4 sequence (Q923J1 whole entry W1111A): as the sequence (Q923J1 whole entry M991A) above, with A991M, W1111A counted along it
Description: as §1, §2

TRPM7-A981L = target: T5, TRPM7-A981L (Mus musculus, UniProt Q923J1, A981L); assay: as above; assay type: cell-based; settings: antagonist, mean ± SEM
T5 construct: expressed in transfected cells; host or cells: HEK 293T
T5 sequence (Q923J1 whole entry A981L): as the sequence (Q923J1 whole entry M991A) above, with A981L, A991M counted along it
Description: as §1, §2

TRPM7-A981V = target: T6, TRPM7-A981V (Mus musculus, UniProt Q923J1, A981V); assay: as above; assay type: cell-based; settings: antagonist, mean ± SEM
T6 construct: expressed in transfected cells; host or cells: HEK 293T
T6 sequence (Q923J1 whole entry A981V): as the sequence (Q923J1 whole entry M991A) above, with A981V, A991M counted along it
Description: as §1, §2

TRPM7-N1098Q = target: T7, TRPM7-N1098Q (Mus musculus, UniProt Q923J1, N1098Q); assay: as above; assay type: cell-based; settings: N1098Q, antagonist, mean ± SEM
T7 construct: expressed in transfected cells; host or cells: HEK 293T
T7 sequence (Q923J1 whole entry N1098Q): as the sequence (Q923J1 whole entry M991A) above, with A991M, N1098Q counted along it
Description: as §1, §2

[1] = target: the molecule itself; assay: cryo-EM structure; single-particle cryo-EM of purified TRPM7 in GDN or in MSP2N2 lipid nanodiscs (POPC:POPE:POPG), 150 mM NaCl, 20 mM Tris pH 8.0; apo or with naltriben, VER155008 or NS8593; final refinement with C4 symmetry

T1 sequence (Q923J1 whole entry): as the sequence (Q923J1 whole entry M991A) above, with A991M counted along it

N#Cc1ccc(COC[C@H]2O[C@@H](n3c(NCc4ccc(Cl)c(Cl)c4)nc4c(N)ncnc43)[C@H](O)[C@@H]2O)cc1 [VER155008]
amplitude of TRPM7-mediated currents in the presence of inhibitor (wild-type TRPM7): greatly reduced | IC50 (TRPM7-M991A; M991A, antagonist, no added second inhibitor, mean ± SEM): not feasible to calculate the IC50 value | sensitivity of the mutant to the inhibitor (TRPM7-M991A; 0.1-10 μM VER155008 (response to reviewers)): no sensitivity | sensitivity of the mutant to the inhibitor (TRPM7-M991A; 1–10 µM VER): not sensitive | Hill coefficient (TRPM7 WT): –2.07 ± 0.41 | IC50 (TRPM7 WT): 0.23 ± 0.03 µM | IC50 (TRPM7-W1111A): ~10 µM | IC50 (TRPM7-A981L): ~25 µM | IC50 (TRPM7-A981V): not feasible to calculate the IC50 value | Hill coefficient (TRPM7-N1098Q): –1.32 ± 0.20 | IC50 (TRPM7-N1098Q): 1.71 ± 0.25 µM

B1: C-terminally truncated mouse TRPM7 (residues 1–1280), wild type (natural protein, UniProt Q923J1 1-1280, looked up)
chain: MSQKSWIESTLTKRECVYIIPSSKDPHRCLPGCQICQQLVRCFCGRLVKQHACFTASLAMKYSDVKLGEHFNQAIEEWSVEKHTEQSPTDAYGVINFQGGSHSYRAKYVRLSYDTKPEIILQLLLKEWQMELPKLVISVHGGMQKFELHPRIKQLLGKGLIKAAVTTGAWILTGGVNTGVAKHVGDALKEHASRSSRKICTIGIAPWGVIENRNDLVGRDVVAPYQTLLNPLSKLNVLNNLHSHFILVDDGTVGKYGAEVRLRRELEKTINQQRIHARIGQGVPVVALIFEGGPNVILTVLEYLQESPPVPVVVCEGTGRAADLLAYIHKQTEEGGNLPDAAEPDIISTIKKTFNFGQSEAVHLFQTMMECMKKKELITVFHIGSEDHQDIDVAILTALLKGTNASAFDQLILTLAWDRVDIAKNHVFVYGQQWLVGSLEQAMLDALVMDRVSFVKLLIENGVSMHKFLTIPRLEELYNTKQGPTNPMLFHLIRDVKQGNLPPGYKITLIDIGLVIEYLMGGTYRCTYTRKRFRLIYNSLGGNNRRSGRNTSSSTPQLRKSHETFGNRADKKEKMRHNHFIKTAQPYRPKMDASMEEGKKKRTKDEIVDIDDPETKRFPYPLNELLIWACLMKRQVMARFLWQHGEESMAKALVACKIYRSMAYEAKQSDLVDDTSEELKQYSNDFGQLAVELLEQSFRQDETMAMKLLTYELKNWSNSTCLKLAVSSRLRPFVAHTCTQMLLSDMWMGRLNMRKNSWYKVILSILVPPAILMLEYKTKAEMSHIPQSQDAHQMTMEDSENNFHNITEEIPMEVFKEVKILDSSDGKNEMEIHIKSKKLPITRKFYAFYHAPIVKFWFNTLAYLGFLMLYTFVVLVKMEQLPSVQEWIVIAYIFTYAIEKVREVFMSEAGKISQKIKVWFSDYFNVSDTIAIISFFVGFGLRFGAKWNYINAYDNHVFVAGRLIYCLNIIFWYVRLLDFLAVNQQAGPYVMMIGKMVANMFYIVVIMALVLLSFGVPRKAILYPHEEPSWSLAKDIVFHPYWMIFGEVYAYEIDVCANDSTLPTICGPGTWLTPFLQAVYLFVQYIIMVNLLIAFFNNVYLQVKAISNIVWKYQRYHFIMAYHEKPVLPPPLIILSHIVSLFCCVCKRRKKDKTSDGPKLFLTEEDQKKLHDFEEQCVEMYFDEKDDKFNSGSEERIRVTFERVEQMSIQIKEVGDRVNYIKRSLQSLDSQIGHLQDLSALTVDTLKTLTAQKASEASKVHNEITRELSISKHLAQNLID
notes: mouse TRPM7 (Trpm7 cDNA NM_021450), truncated C-terminally, protein residues 1–1280; lacks the kinase domain; A thrombin cleavage site (LVPRG) stands between GFP and TRPM7; the purification as described has no thrombin step; also called TRPM7_(Closed); TRPM7_(NTB-open); source: HEK 293S GnTI- cells, baculovirus-transduced (pEG-BacMam), purified (strep resin, SEC); in GDN or reconstituted in …
stoichiometry N [1]: 4

B2: C-terminally truncated mouse TRPM7 (residues 1–1280) with the gain-of-function mutation N1098Q (natural protein, UniProt Q923J1 1-1280, looked up)
chain: MSQKSWIESTLTKRECVYIIPSSKDPHRCLPGCQICQQLVRCFCGRLVKQHACFTASLAMKYSDVKLGEHFNQAIEEWSVEKHTEQSPTDAYGVINFQGGSHSYRAKYVRLSYDTKPEIILQLLLKEWQMELPKLVISVHGGMQKFELHPRIKQLLGKGLIKAAVTTGAWILTGGVNTGVAKHVGDALKEHASRSSRKICTIGIAPWGVIENRNDLVGRDVVAPYQTLLNPLSKLNVLNNLHSHFILVDDGTVGKYGAEVRLRRELEKTINQQRIHARIGQGVPVVALIFEGGPNVILTVLEYLQESPPVPVVVCEGTGRAADLLAYIHKQTEEGGNLPDAAEPDIISTIKKTFNFGQSEAVHLFQTMMECMKKKELITVFHIGSEDHQDIDVAILTALLKGTNASAFDQLILTLAWDRVDIAKNHVFVYGQQWLVGSLEQAMLDALVMDRVSFVKLLIENGVSMHKFLTIPRLEELYNTKQGPTNPMLFHLIRDVKQGNLPPGYKITLIDIGLVIEYLMGGTYRCTYTRKRFRLIYNSLGGNNRRSGRNTSSSTPQLRKSHETFGNRADKKEKMRHNHFIKTAQPYRPKMDASMEEGKKKRTKDEIVDIDDPETKRFPYPLNELLIWACLMKRQVMARFLWQHGEESMAKALVACKIYRSMAYEAKQSDLVDDTSEELKQYSNDFGQLAVELLEQSFRQDETMAMKLLTYELKNWSNSTCLKLAVSSRLRPFVAHTCTQMLLSDMWMGRLNMRKNSWYKVILSILVPPAILMLEYKTKAEMSHIPQSQDAHQMTMEDSENNFHNITEEIPMEVFKEVKILDSSDGKNEMEIHIKSKKLPITRKFYAFYHAPIVKFWFNTLAYLGFLMLYTFVVLVKMEQLPSVQEWIVIAYIFTYAIEKVREVFMSEAGKISQKIKVWFSDYFNVSDTIAIISFFVGFGLRFGAKWNYINAYDNHVFVAGRLIYCLNIIFWYVRLLDFLAVNQQAGPYVMMIGKMVANMFYIVVIMALVLLSFGVPRKAILYPHEEPSWSLAKDIVFHPYWMIFGEVYAYEIDVCANDSTLPTICGPGTWLTPFLQAVYLFVQYIIMVNLLIAFFNQVYLQVKAISNIVWKYQRYHFIMAYHEKPVLPPPLIILSHIVSLFCCVCKRRKKDKTSDGPKLFLTEEDQKKLHDFEEQCVEMYFDEKDDKFNSGSEERIRVTFERVEQMSIQIKEVGDRVNYIKRSLQSLDSQIGHLQDLSALTVDTLKTLTAQKASEASKVHNEITRELSISKHLAQNLID
notes: mouse TRPM7 (Trpm7 cDNA NM_021450), truncated C-terminally, protein residues 1–1280, with N1098Q; Same construct as m1 with the point mutation; a thrombin cleavage site (LVPRG) stands between GFP and TRPM7, no thrombin step is described; also called TRPM7-N1098Q; TRPM7-N1098Q_(open); source: HEK 293S GnTI- cells, baculovirus-transduced (pEG-BacMam), purified (strep resin, SEC); in GDN
binding result [1]: binds
